# Source: patent US8318769B2, “Substituted sulfonamide compounds” (Gruenethal GmbH, priority 2008, dated 2012)
# Target: T1, bradykinin 1 receptor (B1R) of the rat (Rattus norvegicus, UniProt P97583)
# T1 construct: expressed in transfected cells
# T1 sequence (P97583 1-337): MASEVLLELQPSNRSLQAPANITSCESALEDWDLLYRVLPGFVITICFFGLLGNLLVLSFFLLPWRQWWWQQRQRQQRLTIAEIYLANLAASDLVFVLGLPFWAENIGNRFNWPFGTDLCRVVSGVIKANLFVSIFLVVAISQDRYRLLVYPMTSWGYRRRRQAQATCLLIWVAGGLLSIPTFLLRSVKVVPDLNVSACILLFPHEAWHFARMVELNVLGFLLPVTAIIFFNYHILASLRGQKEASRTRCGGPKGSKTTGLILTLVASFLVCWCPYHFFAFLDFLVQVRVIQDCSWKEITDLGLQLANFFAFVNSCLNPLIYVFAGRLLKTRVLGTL
# Experiment: FLIPR Ca2+ assay, B1R antagonism, rat
# Type: cell-based
# Conditions: 10 μM test substance; CHO K1 cells with rat B1R gene (rB1R cells); Des-Arg9-bradykinin at EC80; % inhibition compared with the maximum achievable inhibition; 10 µM
# Method: The agonistic or antagonistic action of substances can be quantified on the bradykinin 1 receptor (B1R) of the human and rat species with ectopically expressing cell lines (CHO K1 cells) and with the aid of a Ca^2+-sensitive dyestuff (Fluo-4) in a fluorescent imaging plate reader (FLIPR). The figure in % activation is based on the Ca^2+ signal after addition of Lys-Des-Arg^9-bradykinin (0.5 nM) or Des-Arg^9-bradykinin (100 nM). Antagonists lead to a suppression of the Ca^2+ inflow after addition of the agonist. % inhibition compared with the maximum achievable inhibition is stated.
# The agonistic or antagonistic action of substances can be determined on the bradykinin 1 receptor (B1R) of the human and rat species with the following assay. In accordance with this assay, the Ca^2+ inflow through the channel is quantified with the aid of a Ca^2+-sensitive dyestuff (type Fluo-4, Molecular Probes Europe BV, Leiden, Holland) in a fluorescent imaging plate reader (FLIPR, Molecular Devices, Sunnyvale, USA).
# Chinese hamster ovary cells (CHO K1 cells) transfected stably with the human B1R gene (hB1R cells) or the B1R gene of the rat (rB1R cells) are used. For functional studies, these cells are plated out on black 96-well plates with a clear base (BD Biosciences, Heidelberg, Germany or Greiner, Frickenhausen, Germany) in a density of 20,000-35,000 cells/well. The cells are left overnight at 37° C. and 5% CO2 in culture medium (hB1R cells: Nutrient Mixture Ham's F12, Gibco Invitrogen GmbH, Karlsruhe, Germany or DMEM, Sigma-Aldrich, Taufkirchen, Germany; rB1R cells: D-MEM/F12, Gibco Invitrogen GmbH, Karlsruhe, Germany) with 10 vol. % FBS (foetal bovine serum, Gibco Invitrogen GmbH, Karlsruhe, Germany or PAN Biotech GmbH, Aidenbach, Germany).
# On the following day, the cells are loaded for 60 min at 37° C. with 2.13 μM Fluo-4 (Molecular Probes Europe BV, Leiden, Holland) in HBSS buffer (Hank's buffered saline solution, Gibco Invitrogen GmbH, Karlsruhe, Germany) with 2.5 mM probenecid (Sigma-Aldrich, Taufkirchen, Germany) and 10 mM HEPES (Sigma-Aldrich, Taufkirchen, Germany). The plates are then washed 2× with HBSS buffer, and HBSS buffer which additionally contains 0.1% BSA (bovine serum albumin; Sigma-Aldrich, Taufkirchen, Germany), 5.6 mM glucose and 0.05% gelatine (Merck KGaA, Darmstadt, Germany) is added. After a further incubation of 20 minutes at room temperature, the plates are inserted into the FLIPR for the Ca^2+ measurement.
# Alternatively, the plates are washed with buffer A (15 mM HEPES, 80 mM NaCl, 5 mM KCl, 1.2 mM CaCl2, 0.7 mM MgSO4, 2 g/l glucose, 2.5 mM probenecid), buffer A is added and the plates are loaded with 2.5 μM Fluo-4 and 0.025% Pluronic F127 (Sigma-Aldrich, Taufkirchen, Germany). Thereafter, the cells are washed 2× with buffer A and incubated for 30 minutes with buffer A, which additionally contains 0.05% BSA and 0.05% gelatine, at room temperature and thereafter inserted into the FLIPR for the Ca^2+ measurement.
# The Ca^2+-dependent fluorescence is measured here before and after addition of substances (λex=488 nm, λem=540 nm). Quantification is by measurement of the highest fluorescence intensity (FC, fluorescence counts) over time.
# The FLIPR protocol consists of 2 additions of substance. Test substances (10 μM) are first pipetted on to the cells and the Ca^2+ inflow is compared with the control (hB1R: Lys-Des-Arg^9-bradykinin >=50 nM; rB1R: Des-Arg^9-bradykinin 10 μM). This gives the figure in % activation based on the Ca^2+ signal after addition of Lys-Des-Arg^9-bradykinin (>=50 nM) or Des-Arg^9-bradykinin (10 μM).
# After incubation for 10-20 minutes, Lys-Des-Arg^9-bradykinin (hB1R) or Des-Arg^9-bradykinin (rB1R) in the concentration of the EC80 is applied and the inflow of Ca^2+ is likewise determined. Antagonists lead to a suppression of the Ca^2+ inflow. % inhibition compared with the maximum achievable inhibition is calculated. […]
row,SMILES,"B1R antagonism, rat [10 μM] % inhibition [%]"
1,"O=C(COCC1CCc2ccccc2N1S(=O)(=O)c1ccc2ccccc2c1)N1CCC(OCCN2CCCC2)(c2cccnc2)CC1 (stereo not shown) [Example 130, 2-[[1-(naphthalen-2-ylsulfonyl)-1,2,3,4-tetrahydro-quinolin-2-yl]-methoxy]-1-[4-pyridin-3-yl-4-(2-pyrrolidin-1-yl-ethoxy)-piperidin-1-yl]-ethanone]",83

# Same assay, conditions: CHO-K1, 10 μM test substance; CHO K1 cells with rat B1R gene (rB1R cells); Des-Arg9-bradykinin at EC80; % inhibition compared with the maximum achievable inhibition; read-out: B1R antagonism, rat [10 μM] % inhibition
row,SMILES,inhibition at 10 µM [%]
1,"O=C(COCC1CCc2ccccc2N1S(=O)(=O)c1ccc2ccccc2c1)N1CCC(OCCN2CCCC2)(c2cccnc2)CC1 (stereo not shown) [Example 129, 2-[[1-(naphthalen-2-ylsulfonyl)-1,2,3,4-tetrahydro-quinolin-2-yl]-methoxy]-1-[4-pyridin-3-yl-4-(2-pyrrolidin-1-yl-ethoxy)-piperidin-1-yl]-ethanone]",92
2,"Cc1cc(S(=O)(=O)N2CCCCC2CCC(=O)N2CCC(OCCN3CCCC3)(c3ccc(C(F)(F)F)cc3)CC2)c(C)cc1Cl (stereo not shown) [Example 75, 3-[1-[(4-chloro-2,5-dimethyl-phenyl)sulfonyl]-piperidin-2-yl]-1-[4-(2-pyrrolidin-1-yl-ethoxy)-4-[4-(trifluoromethyl)-phenyl]-piperidin-1-yl]-propan-1-one]",96
3,"O=C(COCC1COc2ccccc2N1S(=O)(=O)c1ccccc1C(F)(F)F)N1CCC(OCCN2CCCC2)(c2cccc(F)c2)CC1 (stereo not shown) [Example 111, 1-[4-(3-fluorophenyl)-4-(2-pyrrolidin-1-yl-ethoxy)-piperidin-1-yl]-2-[[4-[[2-(trifluoromethyl)-phenyl]sulfonyl]-3,4-dihydro-2H-[1,4]benzoxazin-3-yl]-methoxy]-ethanone]",101
4,"COc1cc(C)c(S(=O)(=O)N(CCOCC(=O)N2CCC(OCCN3CCCC3)(c3ccc(F)cc3)CC2)C2CC2)c(C)c1 [Example 66, N-cyclopropyl-N-[2-[2-[4-(4-fluorophenyl)-4-(2-pyrrolidin-1-yl-ethoxy)-piperidin-1-yl]-2-oxo-ethoxy]-ethyl]-4-methoxy-2,6-dimethyl-benzenesulfonic acid amide]",97
5,"Cc1cccc(Cl)c1S(=O)(=O)N1CCCCC1COCC(=O)N1CCC(OCCN2CCCC2)(c2ccc(F)cc2)CC1 (stereo not shown) [Example 68, 2-[[1-[(2-chloro-6-methyl-phenyl)sulfonyl]-piperidin-2-yl]-methoxy]-1-[4-(4-fluorophenyl)-4-(2-pyrrolidin-1-yl-ethoxy)-piperidin-1-yl]-ethanone]",93
6,"COc1cc(C)c(S(=O)(=O)N(CCOCC(=O)N2CCC(OCCN3CCCC3)(c3ccc(C(F)(F)F)cc3)CC2)C2CC2)c(C)c1 [Example 67, N-cyclopropyl-4-methoxy-2,6-dimethyl-N-[2-[2-oxo-2-[4-(2-pyrrolidin-1-yl-ethoxy)-4-[4-(trifluoromethyl)-phenyl]-piperidin-1-yl]-ethoxy]-ethyl]-benzenesulfonic acid amide]",98
7,"O=C(CCCC1CCCCN1S(=O)(=O)c1cccc2ccccc12)N1CCC(OCCN2CCCC2)(c2cccnc2)CC1 (stereo not shown) [Example 92, 4-[1-(naphthalen-1-ylsulfonyl)-piperidin-2-yl]-1-[4-pyridin-3-yl-4-(2-pyrrolidin-1-yl-ethoxy)-piperidin-1-yl]-butan-1-one]",95
8,"O=C(CC1CCCCN1S(=O)(=O)c1cccc(C(F)(F)F)c1)N1CCC(OCCN2CCCC2)(c2ccc(C(F)(F)F)cc2)CC1 (stereo not shown) [Example 73, 1-[4-(2-pyrrolidin-1-yl-ethoxy)-4-[4-(trifluoromethyl)-phenyl]-piperidin-1-yl]-2-[1-[[3-(trifluoromethyl)phenyl]sulfonyl]-piperidin-2-yl]-ethanone]",100
9,"O=C(CCCC1CCCCN1S(=O)(=O)c1cccc2ccccc12)N1CCC(OCCN2CCCC2)(c2ccncc2)CC1 (stereo not shown) [Example 94, 4-[1-(naphthalen-1-ylsulfonyl)-piperidin-2-yl]-1-[4-pyridin-4-yl-4-(2-pyrrolidin-1-yl-ethoxy)-piperidin-1-yl]-butan-1-one]",59
